One series relates to S. aureus biofilm. Format: cell-based. The settings on record: biofilm, 24 h. Here is the method: (§1) MBIC and MBEC assays were performed as previously described with minor modifications. For the MBIC assay, a suspension of broth diluted bacteria culture (5 × 10^5 CFU/mL) was incubated with the peptide solutions at 37 °C for 24 h. For MBEC assay, 100 μL inoculum culture was seeded to a 96-well-flat-bottom plate and incubated at 37 °C for 48 h to obtain the mature biofilm. Afterwards, the plate was washed by sterile phosphate-buffered saline (PBS; Sigma-Aldrich, Gillingham, UK) twice and treated with a series peptide solution at 37 °C for 24 h. Then, all the plates were washed with PBS and stained by 100 μL 0.1% crystal violet solution (Sigma-Aldrich, Gillingham, UK), and further dissolved by 30% acetic acid (Sigma-Aldrich, Gillingham, UK). The absorbance of each well was recorded by Synergy HT plate reader (Biotech, Minneapolis, MN, USA) at 595 nm.

Another series relates to MRSA mature biofilm. It counts as cell-based. The settings on record: mature biofilm, 48 h. Here is the method: as §1
The subject of the next series is MRSA biofilm. Format: cell-based. The settings on record: biofilm, 24 h. Here is the method: as §1
The next series concerns S. aureus mature biofilm. It counts as cell-based. The settings on record: mature biofilm, 48 h. Here is the method: as §1
Series [1] is described as follows: RP-HPLC retention order of mixed peptides (overall hydrophobicity). The conditions noted are these: peptides mixed in equal ratio and subjected to RP-HPLC; Supplementary Figure S4. Format: physicochemical. The method, then: All peptides were chemically synthesized and purified by RP-HPLC. They were further mixed with an equal ratio and subjected to RP-HPLC. […] Subsequently, all peptides (1 mg/mL) were dissolved in a series of widely used culture media (Figure 2).
N-terminal Phe of temporin was believed to participate in the packaging of “head-tail” oligomerization. […] Furthermore, Trp/D-Trp substitution carried out on des-Phe1 TPF enhanced the peptide aggregation. […] It may be related to the decrease of the helical content; however, it could also be caused by the change of aggregation effects. Previous studies have shown that AMPs with strong antimicrobial activity are present as monomers in an aqueous solution and aggregate on the membrane to disrupt the bacterial cell membrane. […] It has been proposed that some aggregation effects of AMPs could limit the interaction of the peptide with its target, thereby reducing the antibacterial efficacy. In the previous study, the zipper-like motif is associated with the bioactivities as well as the assembly in the LPS micelles, which was considered to arise from hydrophobic interactions mainly. However, the overall hydrophobicity of Trp/D-Trp substituted analogs is less than that of des-Phe1 TPF, as estimated by RP-HPLC analysis. We hypothesize that the enhanced assembly seen for Trp/D-Trp substituted analogs might be related to the increased content of aromatic residues, because it could promote the strength of π stacking or cation-π type interaction. However, the true relation has not been fully clarified so far, and the capability of aromatic moieties to promote aggregation could also be affected by the hydrophobicity, position, and the neighboring side chains in their three-dimensional conformation.

No end group written: not given here.

For the substance LPLIAGLFGKIF-NH2 [des-Phe1 TPF], the MBIC in the series on S. aureus biofilm is 16 µM; in the series on MRSA biofilm, 32/32 µM. In addition, the MBEC is 32/32 µM in the series on MRSA mature biofilm and 32 µM in the series with S. aureus mature biofilm. Besides, the “order of retention time (RP-HPLC, used as estimate of overall hydrophobicity)” value in series [1] is recorded as “TPF> des-Phe1 TPF> W-des-Phe1 TPF> dW-des-Phe1 TPF”.
